Measurements published in patent US20050136079A1, “Cosmetic compositions containing fullerene clusters” (priority 2003, published 2005).

Assay: Antioxidant activity (AOA) by coulometric titration with electrogenerated bromine-based oxidants
Details: Coulombs spent for titration of 100 g of analyzed material; sample macerated 1:5 in water or water/alcohol
Description: The quantitative assessment of the antioxidant activity of the cosmetic composition containing fullerene clusters was tested utilizing bromine-based oxidants generated electrochemically.
Procedure: • 1. Electrogeneration of bromine-based oxidants and coulonometric tritration were performed with a potentiostate using 1 cm^2 platinum working electrode at a current 5 mA • 2. Bromine oxidant was generated 0.2 M KBr dissolved in 0.1M H2SO4/tartrate buffer solution, which ensure 100% yield of oxidant by current. The final point was determined amperometrically with two polarized platinum electrodes at E=20 mV. • 3. Samples for analysis in water or water/alcohol media were obtained by maceration of the mixture of a cosmetic containing the active ingredient listed in the following table and this media taken in proporation 1:5 by weight. • 4. Antioxidant activity (AOA) is expressed as amount of Coulombs spent for titration of 100 g of the analyzed starting cosmetic substance.
Bromine compounds including Br2, Br3^− and active bromo-radicals are electrochemically generated and adsorbed at the surface of the platinum electrode and then these radicals act as oxidating agents in redox reactions, reactions of electrophilic substitution and addition to double bonds e.g. in the fullerene molecules in the fullerene cluster of cosmetic composition. […]

CCCCC/C=C\C/C=C\CCCCCCCC(=O)O [Linoleic Acid without C60, Linoleic Acid]
AOA: 4.8 kCb/100 g
